Data reported in article PMC10824102, “Identification of small molecule inhibitors of G3BP-driven stress granule formation” (The Journal of Cell Biology, 2024).

How the values were obtained:
[1] = tested on: stress granule formation in human iPSC-derived cortical neurons; assay: Stress granule formation in iPSC-derived cortical neurons (co-incubation); assay type: cell-based; conditions: 50 μM co-incubated with or without 500 μM NaAsO2 for 60 min
Experimental: (§1) i3N iPSC clones were gifts from Michael E. Ward (National Institutes of Health, Bethesda, MD, USA) and were used to generate a G3BP1-mNeongreen knock-in iPSC line. iPS neurons were differentiated with a two-step protocol (predifferentiation and maturation) as previously described ([Wang et al., 2017]). For predifferentiation, iPSCs were incubated with 1 µg/ml doxycycline hyclate (Sigma-Aldrich) for 3 days at a density of 1.2 × 10^6 cells/well in six-well dishes coated with Matrigel in knockout DMEM (KO-DMEM)/F12 medium (Thermo Fisher Scientific) containing N2 supplement (Thermo Fisher Scientific), non-essential amino acids (NEAA; Thermo Fisher Scientific), GlutaMAX Supplement (Thermo Fisher Scientific), and Y-27632 ([…] Technologies). The medium was changed daily and Y-27632 was removed from day 2. For maturation, predifferentiated precursor cells were dissociated, counted, and subplated at 25 × 10^4 cells/ml on dishes coated with 50 μg/ml poly-L-ornithine in BrainPhys neuronal medium ([…] Technologies) containing N2 (Thermo Fisher Scientific), B-27, 20 ng/ml BDNF (PeproTech), 20 ng/ml GDNF (PeproTech), 500 µg/ml dibutyryl cyclic-AMP (Sigma-Aldrich), 200 nM L-ascorbic acid (Sigma-Aldrich), 1 µg/ml natural mouse laminin (Thermo Fisher Scientific), 1 μM Ara-C (Sigma-Aldrich), and 1 µg/ml doxycycline hyclate. Half-medium was changed every other day. […]

[2] = tested on: preformed stress granules in human iPSC-derived cortical neurons; assay: Dissolution of preformed stress granules in iPSC-derived cortical neurons; assay type: cell-based; conditions: 50 μM added after 30 min of 500 μM NaAsO2
Experimental: as §1

[3] = target: T1, NTF2L domain of G3BP1 (GFP-NTF2L) interaction with caprin 1 and USP10 (Homo sapiens, UniProt Q13283); assay: Coimmunoprecipitation of GFP-NTF2L with caprin 1 and USP10 in HEK293T lysates; assay type: biochemical; conditions: 25 and 50 μM, GFP IP
T1 construct: lysates expressing the NTF2L domain of G3BP1 (GFP-NTF2L); expressed in transfected cells; host or cells: HEK293T cells expressing GFP-NTF2L (lysate)
T1 sequence (Q13283 11-133 limits assumed): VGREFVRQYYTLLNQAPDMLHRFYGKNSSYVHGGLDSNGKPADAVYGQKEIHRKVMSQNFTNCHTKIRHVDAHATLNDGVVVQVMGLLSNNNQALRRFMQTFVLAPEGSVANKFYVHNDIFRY

| Structure (SMILES) | spontaneous and arsenite-induced stress granule formation [1] | dissolution of preformed stress granules [2] | interaction of NTF2L domain with caprin 1 and USP10 [3] |
| --- | --- | --- | --- |
| COCCC(NC(=O)C(C)NC(=O)C(NC(=O)C(NC(=O)C(F)CC(C)(C)C)C(C)(C)O)C(C)c1ccccc1)C(=O)N(C)Cc1ccccc1 (stereo not drawn) [G3Ia] | blocked both spontaneous and arsenite-induced stress granule formation |  |  |
| CC(NC(=O)C(NC(=O)C(NC(=O)CCC(C)(C)C)C(C)(C)O)C(C)c1ccccc1)C(=O)N1CCCC1c1ccccc1 (stereo not drawn) [G3Ib] |  | nearly instantaneously dissolved stress granules | dose-dependent reduction |
